Counter-ions that a name gives are not always drawn. Like-named read-outs stand apart in the source and are kept apart here. Each block holds one compound with its values, some of them ahead of it.
How the values were obtained:
[1] = tested on: ABCB1 in CD56+ lymphocytes; conditions: healthy volunteers, tariquidar 2 mg/kg i.v. or ≥ 200 mg orally; cited from earlier work
[2] = tested on: drug efflux; set-up: method as in PMID 11212278; conditions: cited from earlier work
[3] = in vivo; conditions: Balb/C, mouse, liver, po, 50 mg/kg
[4] = in vivo; conditions: Balb/C, mouse, plasma, po, 50 mg/kg
[5] = vehicle 30 min before, listed as Imatinib alone
[6] = imatinib 50 mg/kg oral, vehicle 30 min before
[7] = oral; cited from earlier work
[8] = in vivo; conditions: Balb/C, mouse, brain, po, 50 mg/kg
[9] = imatinib 50 mg/kg oral, vehicle 30 min before; remark: listed apart in the source
[10] = elacridar with imatinib 12.5 mg/kg vs imatinib alone; cited from earlier work
[11] = listed as imatinib plus vehicle

SMILES: COc1cc2c(cc1OC)CN(CCc1ccc(NC(=O)c3cc(OC)c(OC)cc3NC(=O)c3cnc4ccccc4c3)cc1)CC2 [Tariquidar]
Duration of 100% inhibition of ABCB1 in CD56+ lymphocytes [1]: over 24 hours | Inhibition of ABCB1 in CD56+ lymphocytes [1]: 100% | Persistence of inhibitory effect on drug efflux in vitro [2]: persists for over two hours

Tmax [3]: 15 min | Tmax [4]: 10.2 min | AUC(0-t) ([4]; Plasma AUC0–24, imatinib 50 mg/kg oral, vehicle 30 min before): 12200 ng·h/mL | Cmax ([4]; Plasma Cmax, imatinib 50 mg/kg oral gavage, vehicle 30 min before, mean, n = 3 per time point): 5710 ng/mL | Plasma Cmax ([5]; imatinib 50 mg/kg oral gavage, mean, n = 3 per time point): 5,710.5 ng/mL | Plasma AUC0–24 ([5]; imatinib 50 mg/kg oral): 12,167.5 hr*ng/mL | Brain AUC0–4 [6]: 574.23 ng·h/g | Brain Cmax (corrected for brain vascular space) ([6]; listed as Imatinib alone): 194.7 ng/g | Brain Cmax (corrected for brain vascular space) [6, 11]: 195 ng/g | Tmax [8]: 120 min | Liver AUC0–24 [9]: 68,330.8 hr*ng/g | Liver AUC0–24 (text) [9]: 68,331 hr*ng/mL | Liver Cmax ([9]; listed as Imatinib alone): 26,279.7 ng/g | Liver Cmax [9, 11]: 26,280 ng/g
SMILES: Cc1ccc(NC(=O)c2ccc(CN3CCN(C)CC3)cc2)cc1Nc1nccc(-c2cccnc2)n1 [Imatinib, Imatinib mesylate]
Bioavailability [7]: approximately 98%

SMILES: COc1cc2c(cc1OC)CN(CCc1ccc(NC(=O)c3cccc4c(=O)c5cccc(OC)c5[nH]c34)cc1)CC2 [elacridar]
Fold increase in brain-to-plasma concentration ratio of imatinib [10]: 9.3 fold

From paper PMC2717937 (Journal of Experimental & Clinical Cancer Research : CR, 2009)
